In PMC10198977, “Computational design of dynamic receptor—peptide signaling complexes applied to chemotaxis” (Nature Communications, 2023):
One block for each molecule: values may come before it. Residues, ends and D or L forms follow the SMILES beside them. No end group written: not given here.

Columns and labels:
Csedy [1] = target: T1, Csedy (Homo sapiens, UniProt P61073); experiment: Gαi BRET of peptides on Csedy; assay type: cell-based; conditions: Csedy receptor; for log(EC50): Gi
Protocol: (§1) Lyophilized peptides were stored at −80 °C and resuspended in assay buffer on the day of the experiment.
(§2) 40,000 HEK 293T cells were transiently transfected with WT or variant HA3-CXCR4, Gαi1−91-Rluc8, Gβ3-WT, and Gγ9-GFP2 in pcDNA3.1(+) at a ratio of 10:1:10:5 respectively. Cells were first seeded in 100 µL DMEM 10% FBS in a poly-lysine coated, white-walled, white-bottom 96-well plate. Directly after cell loading, 50 µL of the mixture containing Lipofectamine 2000 and the DNA was added on top of the cells. The cells were then left to incubate at 37 °C, 5% CO2, and 95% relative humidity for 20 h, after which, 150 µL media was refreshed. Cells were assayed 48 h post-transfection. Cells were washed with 150 µL PBS, then 40 µL BRET buffer (HBSS, 0.2% Glucose) was added to each well. Coelenterazine 400a was first added at a final concentration of 2.5 µM and BRET ratios were measured once using Mithras[2] LB 943 plate reader. After the first measurement, 40 µL of a 3x concentrated agonist solution was added to each well, and BRET ratios were measured for another 30 min using a Mithras[2] LB 943 plate reader. Mock-transfected controls were subtracted from the data. Maximum values averaged from 3 replicates were then plotted against selected concentrations and fitted to a sigmoidal curve using GraphPad Prism v9.

Csedy [2] = target: T1, Csedy; experiment: Calcium mobilization of peptides on Csedy; assay type: cell-based; conditions: Csedy receptor, Ca
Protocol: as §1
(§3) Calcium mobilization assays
(§4) 40,000 HEK 293T cells (gift from Prof. Ted Wensel at Baylor College of Medicine) were transiently transfected with 50 ng WT or variant HA3-CXCR4, 10 ng GNA15 in pcDNA3.1(+). To equalize receptor surface expression, 75 ng of HA3-CXCR4 was used for the Csel2 variant. Cells were first seeded in 100 µL DMEM (Gibco, ref: 41965-039) 10 % FBS in a black-walled, clear-bottom 96-well plate coated with poly-lysine (Sigma, ref: P6407-5MG). Directly after cell loading, 50 µL of the mixture containing 0.5 µL Lipofectamine 2000 (Invitrogen, ref: 11668-019) and the DNA was added on top of the cells. The cells were incubated at 37 °C, 5% CO2, and 95% relative humidity for 20 h, after which, media was refreshed with 150 µL DMEM + 10% FBS. Cells were assayed 48 h post-transfection. Cells were washed with 200 µL FLIPR6 buffer (HBSS + 20 mM HEPES, pH 7.4), then incubated at 37 °C, 5% CO2, and 95% relative humidity for 2 h in 200 µL dye buffer according to the manufacturer’s protocol (Molecular Devices, ref: R8190). Just before the assay, 5× concentrated peptide solutions were prepared in FLIPR6 buffer in a V-bottom 96-well plate. After incubation, peptide solutions were added at a rate of 16 µL/s after 30 s and fluorescence changes were monitored for 90 s after addition using microplate reader FlexStation3 (Molecular Devices). The maximum response after correction by the mock-transfected condition was averaged from three replicates. Values were then plotted against selected concentrations and fitted to a sigmoidal curve using GraphPad Prism v9.

WT CXCR4 [3] = target: T2, WT CXCR4 (Homo sapiens, UniProt P61073); experiment: Gαi BRET of peptides on WT CXCR4; assay type: cell-based; conditions: WT receptor, Gi
T2 sequence (P61073 whole entry): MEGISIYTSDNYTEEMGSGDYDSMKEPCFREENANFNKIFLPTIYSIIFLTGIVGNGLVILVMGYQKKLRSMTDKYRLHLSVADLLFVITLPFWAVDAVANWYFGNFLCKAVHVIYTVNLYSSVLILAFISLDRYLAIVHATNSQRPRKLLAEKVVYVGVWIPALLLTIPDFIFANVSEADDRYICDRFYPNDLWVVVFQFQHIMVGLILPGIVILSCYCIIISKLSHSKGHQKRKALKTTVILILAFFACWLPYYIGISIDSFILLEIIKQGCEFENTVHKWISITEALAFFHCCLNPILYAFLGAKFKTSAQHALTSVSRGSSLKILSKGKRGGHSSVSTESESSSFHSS
Protocol: as §1, §2

WT CXCR4 [4] = target: T2, WT CXCR4; experiment: Calcium mobilization of peptides on WT CXCR4; assay type: cell-based; conditions: WT receptor, Ca
Protocol: as §1, §3, §4

[5] = target: Csedy designed CXCR4 receptor (UniProt P61073)
[6] = target: Cdyn designed CXCR4 receptor (UniProt P61073)
[7] = target: Csel2 designed CXCR4 receptor (UniProt P61073)
[8] = target: WT CXCR4 with an N-terminal 3xHA-tag (UniProt P61073)
[9] = target: Csel2 designed CXCR4 receptor (UniProt P61073); remark: listed apart in the source
[10] = target: Cdyn designed CXCR4 receptor (UniProt P61073); remark: listed apart in the source
[11] = target: Csedy designed CXCR4 receptor (UniProt P61073); remark: listed apart in the source
Gαi activation = experiment: Gαi dissociation BRET of designed receptors with WT CXCL12(1-17) peptide; assay type: cell-based; conditions: WT CXCL12 peptide
Protocol: as §1, §2

[12] = system: CXCR4 variant ligand-binding cavity; experiment: Receptor cavity cross-sectional area and structure-function map; conditions: receptor–peptide pair; Fig. 5c z-axis
Description: Calculation of receptor cavity cross-sectional area
To quantify the conformational diversity of the ligand binding site between receptor variants, the ligand-binding pocket of the receptor models (from whose the ligand molecule was removed) was geometrically described using pyKVFinder[75]. Cavities were defined using a 1.2 Å probe over a cubic lattice (0.25 Å vertex). A 4.0 Å probe was used to define the entrance of the cavity.

T1 sequence (P61073 whole entry): as above

increase in efficacy (Csedy [1]; vs WT receptor–peptide pair): > 34%
log(EC50) (Csedy [1]; replicate 1): -6.83
log(EC50) (Csedy [1]; replicate 2): -7.058
log(EC50) (Csedy [1]; replicate 3): -7.474
Efficacy (Csedy [2]; average (n=3)): 102.027 % WT
log(EC50) (Csedy [2]; replicate 1): -5.519
log(EC50) (Csedy [2]; replicate 2): -5.737
log(EC50) (Csedy [2]; replicate 3): -5.907
Molecule: CC(C)C[C@H](NC(=O)[C@H](CO)NC(=O)[C@H](Cc1ccc(O)cc1)NC(=O)[C@@H]1CCCN1C(=O)[C@@H](N)CCCCN)C(=O)N[C@@H](CO)C(=O)N[C@@H](CC(C)C)C(=O)N[C@@H](CCCNC(=N)N)C(=O)N[C@@H](CS)C(=O)N1CCC[C@H]1C(=O)N[C@@H](CS)C(=O)N[C@@H](CCCNC(=N)N)C(=O)N[C@@H](Cc1ccccc1)C(=O)N[C@@H](Cc1ccccc1)C(=O)N[C@@H](CCC(=O)O)C(=O)N[C@@H](CO)C(=O)N[C@@H](Cc1c[nH]cn1)C(N)=O [V3Y-Y7L] (H-KPYSLSLRCPCRFFESH-NH2)

Molecule: CC(C)C[C@H](NC(=O)[C@H](CO)NC(=O)[C@@H](NC(=O)[C@@H]1CCCN1C(=O)[C@@H](N)CCCCN)C(C)C)C(=O)N[C@@H](CO)C(=O)N[C@@H](Cc1ccc(O)cc1)C(=O)N[C@@H](CCCNC(=N)N)C(=O)N[C@@H](CS)C(=O)N1CCC[C@H]1C(=O)N[C@@H](CS)C(=O)N[C@@H](CCCNC(=N)N)C(=O)N[C@@H](Cc1ccccc1)C(=O)N[C@@H](Cc1ccccc1)C(=O)N[C@@H](CCC(=O)O)C(=O)N[C@@H](CO)C(=O)N[C@@H](Cc1c[nH]cn1)C(N)=O [WT, reference compound] (H-KPVSLSYRCPCRFFESH-NH2)
Efficacy (WT CXCR4 [3]; average (n=3)): 100 % WT
EC50 (WT CXCR4 [3]; replicate 1): 11.2 µM
EC50 (WT CXCR4 [3]; replicate 2): 9.75 µM
EC50 (WT CXCR4 [3]; replicate 3): 12 µM
Efficacy (WT CXCR4 [4]; average (n=3)): 100 % WT
EC50 (WT CXCR4 [4]; replicate 1): 12.9 µM
EC50 (WT CXCR4 [4]; replicate 2): 8.57 µM
EC50 (WT CXCR4 [4]; replicate 3): 15.3 µM

efficacy of signaling, increase [5]: 34%
potency of signaling, fold increase [5]: > 100 fold
Molecule: KPYSLSLRCPCRFFESH-NH2 (cysteine pairing not given here) [CXCL12 V3Y-Y7L variant peptide (17 N-terminal residues)]

efficacy of signaling, increase over the WT receptor-peptide pair [6]: 25%
potency of signaling, fold over the WT receptor-peptide pair [6]: > 80 fold
Molecule: KPYSLSYRCPCRFFESH-NH2 (cysteine pairing not given here) [CXCL12 V3Y variant peptide (17 N-terminal residues)]

Gαi efficacy (BRET) with the Y7L peptide, increase [7]: 30%
overall Gαi response (BRET) with the Y7L peptide, decrease [8]: 18%
Molecule: KPVSLSLRCPCRFFESH-NH2 (cysteine pairing not given here) [CXCL12 Y7L variant peptide (17 N-terminal residues)]

potency in Gαi-coupling (BRET, HEK 293T cells, WT CXCL12 peptide), fold over WT CXCR4 [9]: 3.2 fold
potency in calcium mobilization (HEK 293T cells, WT CXCL12 peptide), fold over WT CXCR4 [9]: 3.1 fold
Gαi efficacy (BRET, WT CXCL12 peptide), increase over the CXCR4 WT scaffold [10]: 20%
Gαi potency (BRET, WT CXCL12 peptide), fold over the CXCR4 WT scaffold [10]: 11 fold
Gαi response (BRET) against WT CXCL12 peptide, fold increase over WT CXCR4 [11]: > 9 fold
Molecule: KPVSLSYRCPCRFFESH-NH2 (cysteine pairing not given here) [wild-type peptide of the 17 N-terminal residues of CXCL12]

enhanced potency from WT (Gαi activation; up to): up to 11 -fold
enhanced potency in Gαi-coupling (Gαi activation; over WT CXCR4): ~11 -fold
increase in efficacy (Gαi) (Gαi activation; vs WT CXCR4): 20%
Potency (activity shift from WT) [12]: 1.794
B1: Cdyn: CXCR4 receptor design maintaining conformational dynamism; 3 mutations (protein, UniProt P61073 1-352, looked up, variant L41A S178A H113N)
C-X-C chemokine receptor type …: MEGISIYTSDNYTEEMGSGDYDSMKEPCFREENANFNKIFAPTIYSIIFLTGIVGNGLVILVMGYQKKLRSMTDKYRLHLSVADLLFVITLPFWAVDAVANWYFGNFLCKAVNVIYTVNLYSSVLILAFISLDRYLAIVHATNSQRPRKLLAEKVVYVGVWIPALLLTIPDFIFANVAEADDRYICDRFYPNDLWVVVFQFQHIMVGLILPGIVILSCYCIIISKLSHSKGHQKRKALKTTVILILAFFACWLPYYIGISIDSFILLEIIKQGCEFENTVHKWISITEALAFFHCCLNPILYAFLGAKFKTSAQHALTSVSRGSSLKILSKGKRGGHSSVSTESESSSFHSS
